PMC9495235, “New MraYAA Inhibitors with an Aminoribosyl Uridine Structure and an Oxadiazole” (Antibiotics, 2022)
Entries after “also recorded” stand apart in the source; their conditions may differ.

Legend:
[1] = target: T1, MraY transferase purified from Aquifex aeolicus (MraYAA) (Aquifex aeolicus, UniProt O66465); assay: Inhibition of MraYAA transferase activity; assay type: biochemical; details: for IC50: read-out: IC50 against MraYAA
T1 construct: His; made in house
Method: The inhibitory activity of the synthesized compounds 12a–12j was evaluated on MraY transferase purified from Aquifex aeolicus (MraYAA) prepared as previously described by Chung et al.. Their activity (Table 4) was compared to the inhibitory activity of the N-triazole-containing inhibitor 13 (Figure 3) that we previously synthesized (Table 4). Commercially available tunicamycin from Streptomyces sp. was used as a positive control in the test.
The inhibitory activity of the synthesized compounds 1–5 was determined as described in reference except that compounds were tested at a final concentration of 10% DMSO. The compounds were evaluated on His-tagged MraY transferase purified from Aquifex aeolicus (MraYAA) prepared as previously described by Chung et al.. The assays were performed as previously described by Stachyra et al..

[2] = system: Enterococcus faecium ATCC 19434; assay: Antibacterial activity (CMI); assay type: cell-based; details: Gram +
Method: (§1) The antibacterial activity of MraY inhibitors 12a–12h was also evaluated against several bacterial strains. Gram-negative (E. coli ATCC 8730, C. freundii ATCC8090 and P. aeruginosa ATCC 27853) and Gram-positive pathogenic bacterial strains (S. aureus ATCC 25923 and E. faecium ATCC 19434), including a methicillin-resistant strain (S. aureus MRSA ATCC 43300), were selected as a representative of pathogen bacterial diversity. Piperacillin and vancomycin were used as positive control in the tests.
(§2) Antibacterial activity was determined as previously described, but molecules were solubilized in 100% DMSO (cell culture grade) at 1 mg/mL concentration and 10-fold diluted in MHB just before utilization. The MHB-diluted solutions were then serially diluted in 5% DMSO-MHB, at final concentrations ranging from […] for compounds and 6.25 to 5% for DMSO.
(§3) Table S1. Antibacterial activity of compounds 12a-12i, and reference compounds.
(§4) final concentration tested

[3] = system: Citrobacter freundii ATCC 8090; assay: Antibacterial activity (CMI); assay type: cell-based; details: Gram -
Method: as §1, §2, §3, §4

[4] = system: Pseudomonas aeruginosa ATCC 27853; assay: Antibacterial activity (CMI); assay type: cell-based; details: Gram -
Method: as §1, §2, §3, §4

[5] = system: Staphylococcus aureus ATCC 25923; assay: Antibacterial activity (CMI); assay type: cell-based; details: Gram +
Method: as §1, §2, §3, §4

[6] = system: Escherichia coli ATCC 8730; assay: Antibacterial activity (CMI); assay type: cell-based; details: Gram -
Method: as §1, §2, §3, §4

[7] = system: Staphylococcus aureus MRSA ATCC 43300; assay: Antibacterial activity (CMI); assay type: cell-based; details: Gram +
Method: as §1, §2, §3, §4

[8] = Solubility in 5%DMSO-water (culture media); assay type: physicochemical; details: at the highest final concentration tested
Method: as §2, §3, §4

[9] = final concentration of 10% DMSO, triplicate, repeated at least twice (tunicamycin tested twice)

T1 sequence (O66465 whole entry): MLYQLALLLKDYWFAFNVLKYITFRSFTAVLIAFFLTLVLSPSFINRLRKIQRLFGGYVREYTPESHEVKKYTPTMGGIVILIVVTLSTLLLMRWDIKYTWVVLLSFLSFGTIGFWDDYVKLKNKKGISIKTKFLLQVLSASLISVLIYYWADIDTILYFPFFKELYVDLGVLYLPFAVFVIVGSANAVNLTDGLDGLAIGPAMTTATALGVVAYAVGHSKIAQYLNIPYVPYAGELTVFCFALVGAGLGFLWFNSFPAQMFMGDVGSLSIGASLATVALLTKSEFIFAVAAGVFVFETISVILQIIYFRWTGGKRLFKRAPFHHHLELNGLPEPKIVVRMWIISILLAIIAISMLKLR

## NC[C@H]1O[C@@H](O[C@@H](Cc2noc(CCCCCCCCCc3ccccc3)n2)[C@H]2O[C@@H](n3ccc(=O)[nH]c3=O)[C@H](O)[C@@H]2O)[C@H](O)[C@@H]1O.O=C(O)C(F)(F)F [Compound 12g]
[1]; [9]
  IC50: 5.8 ± 0.1 µM
[2]
  CMI: > 50 µg/mL
[3]
  CMI: > 50 µg/mL
[4]
  CMI: > 50 µg/mL
[5]
  CMI: > 50 µg/mL
[6]
  CMI: > 50 µg/mL
[7]
  CMI: > 50 µg/mL

## CCCCCCCC/C=C/CCCCCCCc1nc(C[C@H](O[C@@H]2O[C@H](CN)[C@@H](O)[C@H]2O)[C@H]2O[C@@H](n3ccc(=O)[nH]c3=O)[C@H](O)[C@@H]2O)no1.O=C(O)C(F)(F)F [Compound 12f]
[8]
  solubility in 5%DMSO-water (culture media): insoluble
[1]; [9]
  IC50: 17.3 ± 0.3 µM
[2]
  CMI: 50 µg/mL
[3]
  CMI: > 50 µg/mL
[4]
  CMI: > 50 µg/mL
[5]
  CMI: 50 µg/mL
[6]
  CMI: > 50 µg/mL
[7]
  CMI: 50 µg/mL

## CCN1CCN(C(=O)N[C@@H](C(=O)N[C@@H]2C(=O)N3[C@@H]2SC(C)(C)[C@@H]3C(=O)O)c2ccccc2)C(=O)C1=O [Piperacillin, reference compound]
[2]
  CMI: 4 µg/mL
[3]
  CMI: 4 µg/mL
[4]
  CMI: 8 µg/mL
[5]
  CMI: 4 µg/mL
[6]
  CMI: 4 µg/mL
[7]
  CMI: > 128 µg/mL

## Tunicamycin [reference compound]
[1]; [9]
  IC50: 0.026 µM

## CCCCCCCCCC(C(=O)O)c1nc(C[C@H](O[C@@H]2O[C@H](CN)[C@@H](O)[C@H]2O)[C@H]2O[C@@H](n3ccc(=O)[nH]c3=O)[C@H](O)[C@@H]2O)no1 (some centres unmarked) [Compound 12j]
[1]; [9]
  IC50: 2.9 ± 0.6 µM
[1]; relative to parent ethyl ester (12h), MraYAA
  activity relative to the parent ester: almost tenfold more active

## CCCCCCCCCCCCCCCc1nc(C[C@H](O[C@@H]2O[C@H](CN)[C@@H](O)[C@H]2O)[C@H]2O[C@@H](n3ccc(=O)[nH]c3=O)[C@H](O)[C@@H]2O)no1.O=C(O)C(F)(F)F [Compound 12b]
[1]; [9]
  IC50: 9.3 ± 0.2 µM
[2]
  CMI: > 50 µg/mL
[3]
  CMI: > 50 µg/mL
[4]
  CMI: > 50 µg/mL
[5]
  CMI: > 50 µg/mL
[6]
  CMI: > 50 µg/mL
[7]
  CMI: > 50 µg/mL

## CCCCCCCCCCc1cn(C[C@H](O[C@@H]2O[C@H](CN)[C@@H](O)[C@H]2O)[C@H]2O[C@@H](n3ccc(=O)[nH]c3=O)[C@H](O)[C@@H]2O)nn1 [Compound 13, reference compound]
[1]; [9]
  IC50: 1.1 µM

## CCCCCCCCCC(C(=O)OCC)c1nc(C[C@H](O[C@@H]2O[C@H](CN)[C@@H](O)[C@H]2O)[C@H]2O[C@@H](n3ccc(=O)[nH]c3=O)[C@H](O)[C@@H]2O)no1 (mixture of isomers) [Compound 12h]
[1]; [9]
  IC50: 27.5 ± 0.7 µM
[2]
  CMI: > 50 µg/mL
[3]
  CMI: > 50 µg/mL
[4]
  CMI: > 50 µg/mL
[5]
  CMI: > 50 µg/mL
[6]
  CMI: > 50 µg/mL
[7]
  CMI: > 50 µg/mL

## CCCCCCCC/C=C\CCCCCCCc1nc(C[C@H](O[C@@H]2O[C@H](CN)[C@@H](O)[C@H]2O)[C@H]2O[C@@H](n3ccc(=O)[nH]c3=O)[C@H](O)[C@@H]2O)no1.O=C(O)C(F)(F)F [Compound 12d]
[8]
  solubility in 5%DMSO-water (culture media): insoluble
[1]; [9]
  IC50: 18.9 ± 0.9 µM
[2]
  CMI: > 50 µg/mL
[3]
  CMI: > 50 µg/mL
[4]
  CMI: > 50 µg/mL
[5]
  CMI: > 50 µg/mL
[6]
  CMI: > 50 µg/mL
[7]
  CMI: > 50 µg/mL

## CCCCCCCCCCCCCCCCCCc1nc(C[C@H](O[C@@H]2O[C@H](CN)[C@@H](O)[C@H]2O)[C@H]2O[C@@H](n3ccc(=O)[nH]c3=O)[C@H](O)[C@@H]2O)no1.O=C(O)C(F)(F)F [Compound 12c]
[8]
  solubility in 5%DMSO-water (culture media): insoluble
[1]; [9]
  IC50: 15.8 ± 1 µM
[2]
  CMI: 50 µg/mL
[3]
  CMI: > 50 µg/mL
[4]
  CMI: > 50 µg/mL
[5]
  CMI: 50 µg/mL
[6]
  CMI: > 50 µg/mL
[7]
  CMI: 50 µg/mL

## CCCCCCCCCCc1nc(C[C@H](O[C@@H]2O[C@H](CN)[C@@H](O)[C@H]2O)[C@H]2O[C@@H](n3ccc(=O)[nH]c3=O)[C@H](O)[C@@H]2O)no1.O=C(O)C(F)(F)F [Compound 12a]
[1]; [9]
  IC50: 0.8 ± 0.1 µM
[2]
  CMI: > 50 µg/mL
[3]
  CMI: > 50 µg/mL
[4]
  CMI: > 50 µg/mL
[5]
  CMI: > 50 µg/mL
[6]
  CMI: > 50 µg/mL
[7]
  CMI: > 50 µg/mL

## CN[C@H](CC(C)C)C(=O)N[C@H]1C(=O)N[C@@H](CC(N)=O)C(=O)N[C@H]2C(=O)N[C@H]3C(=O)N[C@H](C(=O)N[C@H](C(=O)O)c4cc(O)cc(O)c4-c4cc3ccc4O)[C@H](O)c3ccc(c(Cl)c3)Oc3cc2cc(c3O[C@@H]2O[C@H](CO)[C@@H](O)[C@H](O)[C@H]2O[C@H]2C[C@](C)(N)[C@H](O)[C@H](C)O2)Oc2ccc(cc2Cl)[C@H]1O [Vancomycin, reference compound]
[2]
  CMI: 0.5 µg/mL
[5]
  CMI: 1 µg/mL
[7]
  CMI: 1 µg/mL

## NC[C@H]1O[C@@H](O[C@@H](Cc2noc(-c3ccc(Oc4ccccc4)cc3)n2)[C@H]2O[C@@H](n3ccc(=O)[nH]c3=O)[C@H](O)[C@@H]2O)[C@H](O)[C@@H]1O.O=C(O)C(F)(F)F [Compound 12e]
[1]; [9]
  IC50: 3.2 ± 0.2 µM
[2]
  CMI: > 50 µg/mL
[3]
  CMI: > 50 µg/mL
[4]
  CMI: > 50 µg/mL
[5]
  CMI: > 50 µg/mL
[6]
  CMI: > 50 µg/mL
[7]
  CMI: > 50 µg/mL

## CCCCCCCCCCC(CCCCCCCCCC)c1nc(C[C@H](O[C@@H]2O[C@H](CN)[C@@H](O)[C@H]2O)[C@H]2O[C@@H](n3ccc(=O)[nH]c3=O)[C@H](O)[C@@H]2O)no1.O=C(O)C(F)(F)F [Compound 12i]
[8]
  solubility in 5%DMSO-water (culture media): insoluble
[1]; [9]
  IC50 against MraYAA: no activity; also recorded: N.I. ^e
[2]
  CMI: > 50 µg/mL
[3]
  CMI: > 50 µg/mL
[4]
  CMI: > 50 µg/mL
[5]
  CMI: > 50 µg/mL
[6]
  CMI: > 50 µg/mL
[7]
  CMI: > 50 µg/mL
